Laboratory results from ChEMBL document CHEMBL1201862, “PubChem BioAssay data set” (2004).
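Briefly, cells in 96-well plates were exposed to five compound concentrations for 48 h, and endpoints were estimated by linear interpolation. GI50: concentration for 50% inhibition of growth.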 The source made the active and inactive calls. No stated cut-off is given here; in the data, active = GI50 up to about 1.1 µM and inactive = higher.

Key:
Test in all cases: growth of human tumour cells (NCI), 48 h
SF-268 = tested on: SF-268
MDA-MB-231 = tested on: MDA-MB-231
SK-OV-3 = tested on: SK-OV-3
U-251 = tested on: U-251
SK-MEL-2 = tested on: SK-MEL-2
M14 = tested on: M14
MOLT-4 = tested on: MOLT-4
HOP-92 = tested on: HOP-92
HCC 2998 = tested on: HCC 2998
Malme-3M = tested on: Malme-3M
NCI/ADR-RES = tested on: NCI/ADR-RES
HCT-15 = tested on: HCT-15
UACC-62 = tested on: UACC-62
Hs-578T = tested on: Hs-578T
MCF7 = tested on: MCF7
MDA-MB-435 = tested on: MDA-MB-435
OVCAR-5 = tested on: OVCAR-5
SNB-19 = tested on: SNB-19
786-0 = tested on: 786-0
NCI-H460 = tested on: NCI-H460

SMILES | GI50 (SF-268) | GI50 (MDA-MB-231) | GI50 (SK-OV-3) | GI50 (U-251) | GI50 (SK-MEL-2) | GI50 (M14) | GI50 (MOLT-4) | GI50 (HOP-92) | GI50 (HCC 2998) | GI50 (Malme-3M) | GI50 (NCI/ADR-RES) | GI50 (HCT-15) [µM] | GI50 (UACC-62) | GI50 (Hs-578T) | GI50 (MCF7) | GI50 (MDA-MB-435) | GI50 (OVCAR-5) | GI50 (SNB-19) | GI50 (786-0) | GI50 (NCI-H460)
C=C(C)C1CC/C(C)=C/CCC2(C)OC2CC/C(CO)=C\C1O (stereo not given) | 66.7 µM (inactive) | > 100 µM (inactive) | > 100 µM (inactive) | 98.4 µM (inactive) | > 100 µM (inactive) | 49.3 µM (inactive) | 43 µM (inactive) | 7.28 µM (inactive) | > 100 µM (inactive) | 52.1 µM (inactive) | > 100 µM (inactive) | > 100 | 80 µM (inactive) | 15.7 µM (inactive) | 91.4 µM (inactive) | 60 µM (inactive) | > 100 µM (inactive) | > 100 µM (inactive) | > 100 µM (inactive) | 42.7 µM (inactive)
O=C(c1no[n+]([O-])c1C(=O)c1csc2ccccc12)c1csc2ccccc12 | 6.27 µM (inactive) | 5.64 µM (inactive) | 16.1 µM (inactive) | 9.95 µM (inactive) | 6.68 µM (inactive) | 9.04 µM (inactive) | 0.678 µM (active) | 2.16 µM (inactive) | 4.6 µM (inactive) | 3.19 µM (inactive) | 15.6 µM (inactive) | 4.57 | 10.9 µM (inactive) | 10.2 µM (inactive) | 4.41 µM (inactive) | 8.93 µM (inactive) | 18.3 µM (inactive) | 16.9 µM (inactive) | 0.27 µM (active) | 13.2 µM (inactive)
O=c1c2cc(S(=O)(=O)Nc3ccccc3Cl)ccc2ncn1NS(=O)(=O)c1ccc(Br)cc1 | > 37.5 µM (inactive) | > 37.5 µM (inactive) | > 37.5 µM (inactive) | > 37.5 µM (inactive) | > 37.5 µM (inactive) | > 37.5 µM (inactive) | > 37.5 µM (inactive) | > 37.5 µM (inactive) | > 37.5 µM (inactive) | > 37.5 µM (inactive) | > 37.5 µM (inactive) | > 37.5 | > 37.5 µM (inactive) | > 37.5 µM (inactive) | > 37.5 µM (inactive) | > 37.5 µM (inactive) | > 37.5 µM (inactive) | > 37.5 µM (inactive) | > 37.5 µM (inactive) | > 37.5 µM (inactive)
COc1ccc2c(c1)-c1nc(=S)n(CCCN(C)C)c3ccc([N+](=O)[O-])c(c13)N2 | 0.617 µM (active) | 0.687 µM (active) | 1.11 µM (active) | 0.592 µM (active) | 14.7 µM (inactive) | 8.26 µM (inactive) | 0.141 µM (active) | 2.15 µM (inactive) | 1.5 µM (inactive) | 0.518 µM (active) | 1.25 µM (inactive) | 0.484 | 12.1 µM (inactive) | 1.72 µM (inactive) | 0.437 µM (active) | 1.97 µM (inactive) | 0.611 µM (active) | 0.8 µM (active) | 0.279 µM (active) | 0.358 µM (active)
CCN(CC)CCCNc1nncc2cc3c([nH]c4ccc(OC)cc43)c(C)c12 | 6.65 µM (inactive) | 7.41 µM (inactive) | 9.64 µM (inactive) | 3.69 µM (inactive) | 17.7 µM (inactive) | 12.9 µM (inactive) | 2.3 µM (inactive) | 10.1 µM (inactive) | 6.1 µM (inactive) | 13.7 µM (inactive) | > 100 µM (inactive) | 19.3 | 17.4 µM (inactive) | 10.4 µM (inactive) | 2.56 µM (inactive) | 10.8 µM (inactive) | 11.5 µM (inactive) | 5.97 µM (inactive) | 4.13 µM (inactive) | 3.63 µM (inactive)
Cc1cn(S(=O)(=O)c2ccccc2)c2c(OCc3ccccc3)cc(NS(C)(=O)=O)cc12 | 14 µM (inactive) | 9.66 µM (inactive) | 40.9 µM (inactive) | 10.6 µM (inactive) | 18.1 µM (inactive) | 19.2 µM (inactive) | 3.45 µM (inactive) | 27.2 µM (inactive) | 24.4 µM (inactive) | 8.38 µM (inactive) | 14.9 µM (inactive) | 12.9 | 17.9 µM (inactive) | 39.5 µM (inactive) | 6.98 µM (inactive) | 9.64 µM (inactive) | 61.8 µM (inactive) | 43.3 µM (inactive) | 16.4 µM (inactive) | 18.5 µM (inactive)
Cn1c(O)c(C(=O)Nc2ccc([N+](=O)[O-])cc2)c(=O)n(C)c1=S | 2.64 µM (inactive) | 2.54 µM (inactive) | 3.64 µM (inactive) | 2.23 µM (inactive) | 1.82 µM (inactive) | 3.37 µM (inactive) | 3.08 µM (inactive) | 1.54 µM (inactive) | 2.47 µM (inactive) | 2.11 µM (inactive) | 2.79 µM (inactive) | 2.13 | 1.23 µM (inactive) | 0.617 µM (active) | 1.78 µM (inactive) | 1.51 µM (inactive) | 4.91 µM (inactive) | 2.16 µM (inactive) | 2.67 µM (inactive) | 2.82 µM (inactive)
NCCCc1nonc1C(=O)O | > 100 µM (inactive) | > 100 µM (inactive) | > 100 µM (inactive) | > 100 µM (inactive) | > 100 µM (inactive) | > 100 µM (inactive) | > 100 µM (inactive) | > 100 µM (inactive) | > 100 µM (inactive) | > 100 µM (inactive) | > 100 µM (inactive) | > 100 | > 100 µM (inactive) | > 100 µM (inactive) | > 100 µM (inactive) | > 100 µM (inactive) | > 100 µM (inactive) | > 100 µM (inactive) | > 100 µM (inactive) | > 100 µM (inactive)
COc1ccc(/C=N/N=C(\N)NO)c(O)c1 | > 10 µM (inactive) | > 10 µM (inactive) | 7.38 µM (inactive) | > 10 µM (inactive) | > 10 µM (inactive) | 5.01 µM (inactive) | > 10 µM (inactive) | > 10 µM (inactive) | > 10 µM (inactive) | 9.75 µM (inactive) | 3.92 µM (inactive) | 6.24 | 4.53 µM (inactive) | > 10 µM (inactive) | 4.34 µM (inactive) | 2.09 µM (inactive) | > 10 µM (inactive) | > 10 µM (inactive) | > 10 µM (inactive) | 4.91 µM (inactive)
CC1=NN(c2nc(N)nc(CBr)n2)C(C)(C)C1 | 6.01 µM (inactive) | 7.18 µM (inactive) | 17.3 µM (inactive) | 6.76 µM (inactive) | 12.9 µM (inactive) | 5.79 µM (inactive) | 1.61 µM (inactive) | 0.436 µM (active) | 16.1 µM (inactive) | 2.45 µM (inactive) | 17.7 µM (inactive) | 3.61 | 7.28 µM (inactive) | 13.9 µM (inactive) | 2.47 µM (inactive) | 11 µM (inactive) | 3.71 µM (inactive) | 16.7 µM (inactive) | 0.692 µM (active) | 7.64 µM (inactive)
COc1cccc(C2CC(C)(N3CCCC3)Oc3cc4c(cc32)OCO4)c1O (stereo not given) | 30.3 µM (inactive) | 19.1 µM (inactive) | 29.6 µM (inactive) | 25.1 µM (inactive) | 16.5 µM (inactive) | 17.3 µM (inactive) | 21.8 µM (inactive) | 31.3 µM (inactive) | 23 µM (inactive) | 24.8 µM (inactive) | 20.8 µM (inactive) | 11.3 | 22.1 µM (inactive) | 21.5 µM (inactive) | 39.1 µM (inactive) | 4.39 µM (inactive) | 29.7 µM (inactive) | 37.6 µM (inactive) | 32.8 µM (inactive) | 28.2 µM (inactive)
CC(C)(C)OC(=O)Nc1nnc(S(N)(=O)=O)s1 | > 100 µM (inactive) | > 100 µM (inactive) | > 100 µM (inactive) | > 100 µM (inactive) | > 100 µM (inactive) | > 100 µM (inactive) | > 100 µM (inactive) | > 100 µM (inactive) | > 100 µM (inactive) | > 100 µM (inactive) | > 100 µM (inactive) | > 100 | > 100 µM (inactive) | > 100 µM (inactive) | > 100 µM (inactive) | > 100 µM (inactive) | > 100 µM (inactive) | > 100 µM (inactive) | > 100 µM (inactive) | > 100 µM (inactive)
Nc1ncnc2c1ncn2CC(O)C(=O)O (stereo not given) | > 100 µM (inactive) | > 100 µM (inactive) | > 100 µM (inactive) | > 100 µM (inactive) | > 100 µM (inactive) | > 100 µM (inactive) | > 100 µM (inactive) | > 100 µM (inactive) | > 100 µM (inactive) | > 100 µM (inactive) | > 100 µM (inactive) | > 100 | > 100 µM (inactive) | > 100 µM (inactive) | > 100 µM (inactive) | > 100 µM (inactive) | > 100 µM (inactive) | > 100 µM (inactive) | > 100 µM (inactive) | > 100 µM (inactive)
CC(=O)OCC1OC(N2C(=O)CC(N)=Nc3ccccc32)C(OC(C)=O)C(OC(C)=O)C1OC(C)=O (stereo not given) | 45.4 µM (inactive) | > 100 µM (inactive) | > 100 µM (inactive) | 59.7 µM (inactive) | 48.4 µM (inactive) | 38.6 µM (inactive) | 16.7 µM (inactive) | > 100 µM (inactive) | 75.7 µM (inactive) | 28.9 µM (inactive) | 45.3 µM (inactive) | 44.8 | 34.6 µM (inactive) | > 100 µM (inactive) | 29.4 µM (inactive) | 30.6 µM (inactive) | > 100 µM (inactive) | > 100 µM (inactive) | > 100 µM (inactive) | 55.5 µM (inactive)
